In US9073916B2, “Prodrug forms of kinase inhibitors and their use in therapy” (AUCKLAND UNISERVICES LIMITED, priority 2009, dated 2015):
pIC50: −log10 of the molar value. Where two headings read alike, the source gives them in different places.

Assays:
[1] = system: H1975 xenografts; experiment: In vivo efficacy in H1975 xenografts; set-up: species or system mice; conditions: H1975 xenografts, q3dx4 at respective MTD, IP
Description: Specific pathogen-free homozygous female NIH-III nude mice (Charles River Laboratories, Wilmington, Mass.) were inoculated subcutaneously with a single cell suspension of H1975 cells (5×10^6 cells/100 μL; right flank). When H1975 tumour xenografts were established (typically 8-12 days) mice were randomized to treatment groups. All compounds were prepared in lactate buffer (pH4). Mice were dosed by intraperitoneal injection (0.01-0.03 ml/g) using the stated schedules and dose levels. For growth delay experiments mice were randomized to treatment and tumor volume [π(length×width^2)/6] and body weight were measured daily following treatment. […] Differences in RTV^4 were tested for statistical difference by Mann Whitney U test using SigmaStat v3.5.

[2] = system: SKOV3 cells; experiment: Cellular growth inhibition (sulforhodamine B); assay type: cell-based, Human; conditions: Table 9; for pIC50: Homo sapiens, SK-OV-3
Description: Human A431, H1975 and SKOV3 carcinoma cells in log phase exponential growth in alpha minimal essential media (αMEM) containing 5% fetal bovine serum (FBS), were harvested by trypsinisation (1× trypsin/EDTA, Gibco Brl), counted, and seeded into 96 well plates (Nunc) at cell densities ranging from 800-1500 cells/well. Half of the cell samples were seeded into plates that were pre-equilibrated and held in an anoxic environment (90% N2, 5% H2, 5% CO2, 37° C.; Anaerobic chamber, Coy Laboratory Products). […] At the end of this period the anoxic plates were recovered from the anaerobic camber and held under normoxia in a standard CO2 incubator (37° C.) for 20 hours. All plates were washed free of compound and cells were allowed to proliferate for a further 4 days in αMEM containing 5% FBS+antibiotics. Cells were fixed in trichloroacteic acid (30 min), washed and stained with sulforhodamine B (SRB, 60 min) prior to washing in acidified water. SRB was solubilised and absorption read at 450 nm to calculate cell densities. Inhibition of proliferation was calculated relative to untreated control wells.

[3] = system: H1975 cells; experiment: Cellular growth inhibition (sulforhodamine B); assay type: cell-based, Human; conditions: Table 9; for pIC50: Homo sapiens, NCI-H1975
[4] = biological target: T1, erbB1 (Homo sapiens, UniProt P00533); experiment: Inhibition of erbB1 autophosphorylation in EGF-stimulated intact A431 cells (Western blot); conditions: for Deact. erbB1 (fold reduction in cellular inhibition relative to the parent kinase inhibitor): Table 8, A431 cells
[5] = system: A431 cells; experiment: Cellular growth inhibition (sulforhodamine B); conditions: for pIC50: Homo sapiens; for A431 Deact. / A431 HCR: Table 9; for A431 Deact. (fold reduction in oxic growth inhibition relative to parent kinase inhibitor) / A431 HCR (Hypoxic Cytotoxicity Ratio): Table 3
[6] = physchem
[7] = Chemical stability by HPLC; conditions: HPLC after 24 h at 37° C.
[8] = biological target: T1, erbB1; experiment: Cellular erbB1 inhibition under oxic and hypoxic conditions in A431 cells; assay type: cell-based; conditions: 1 μM, 4 hour exposure oxic or hypoxic, washed, EGF stimulated
Description: Human A431 epidermoid carcinoma cells were seeded at 400,000 cells/well in a 6 well plate in alpha minimal essential media (αMEM) containing 10% fetal bovine serum, 10 mM D-Glucose and 0.2 mM 2′-deoxycytidine. A431 cells were allowed to attach for 90 minutes under oxic or anoxic conditions, then exposed to test compounds at a concentration of 1 uM for a further 4 hours under oxic or anoxic conditions. The cells were then washed free of test compounds three times using serum free media and then returned to the incubator under oxic conditions overnight. The cells were then stimulated with 100 ng/mL EGF for 15 minutes before the medium was aspirated and the cells were washed with ice-cold PBS.

[9] = system: SKBR3 cells; experiment: Cellular growth inhibition (sulforhodamine B); assay type: cell-based, Human; conditions: Table 3; for pIC50: Homo sapiens, SK-BR-3
Description: (§2) Human A431, BT474, SKBR3, SKOV3, SW620, H1975 and HT29 carcinoma cells in log phase exponential growth in alpha minimal essential media (αMEM) containing 5% fetal bovine serum (FBS), were harvested by trypsinisation (1× trypsin/EDTA, Gibco Brl), counted, and seeded into 96 well plates (Nunc) at cell densities ranging from 800-1500 cells/well. Half of the cell samples were seeded into plates that were pre-equilibrated and held in an anoxic environment (90% N2, 5% H2, 5% CO2, 37° Q Anaerobic chamber, Coy Laboratory Products). […] At the end of this period the anoxic plates were recovered from the anaerobic camber and held under normoxia in a standard CO2 incubator (37° C.) for 20 hours. All plates were washed free of compound and cells were allowed to proliferate for a further 4 days in αMEM containing 5% FBS+antibiotics. Cells were fixed in trichloroacteic acid (30 min), washed and stained with sulforhodamine B (SRB, 60 min) prior to washing in acidified water. SRB was solubilised and absorption read at 450 nm to calculate cell densities. Inhibition of proliferation was calculated relative to untreated control wells.

[10] = system: SW620 cells; experiment: Cellular growth inhibition (sulforhodamine B); assay type: cell-based, Human; conditions: Table 3; for pIC50: Homo sapiens, SW-620
Description: as §2

[11] = biological target: erbB2 (Homo sapiens, UniProt P04626); experiment: Isolated enzyme inhibition (Invitrogen Z′-LYTE kinase assay); assay type: biochemical; conditions: 10 μM ATP, duplicate
Description: (§1) The compounds of Table 1 were tested for their ability to inhibit erbB1, erbB1^T790M, erbB2 and erbB4 in an isolated enzyme assay. This assay utilises synthetic FRET-capable peptide substrates. Phosphorylation of these substrates protects them from cleavage by a development reagent, leaving their FRET-capabilities intact. […] As a further consideration, for compounds capable of irreversible inhibition of an enzyme, the IC50 reflects both reversible and irreversible binding to the enzyme.

[12] = Pulse radiolysis (E(1) and fragmentation rate); assay type: physicochemical; conditions: determined against methylviologen
Description: Pulse radiolysis was used to monitor the 1-electron reduction and stability of the compounds in real time. A linear accelerator delivering short pulses of high energy electrons (2-3 Gy in 200 ns of 4 MeV) equipped with a fast spectophotometric detection system was used. (Anderson et al, J. Phys. Chem. A, 101, 9704-9709, 1997). […] The rate of fragmentation was determined by analysing kinetic transients at wavelengths corresponding to the formation of the benzyl-type radical of the trigger moiety. (Bays et al, J. Am. Chem. Soc., 105, 320-324, 1983; Anderson et al, J. Phys. Chem. A, 101, 9704-9709, 1997).
The pulse radiolysis method, for example, measures the equilibrium constant between the radical anions of the prodrugs, formed upon their 1-electron reduction, and reference standards such as viologen and quinone compounds, from which data the E(1) values of the compounds can be calculated. (Meisel and Czapski. J. Phys. Chem., 1975, 79, 1503-1509.) The E(1) values of prodrugs 17-22, 140-145 were measured by the pulse radiolysis method and determined to range between −0.493V and −0.388V (Table 4).
The rate constants for fragmentation, kfrag, of the 1-electron reduced prodrugs can be measured using pulse radiolysis to observe the time-resolved formation of the absorption spectrum of the benzyl-type radical produced upon fragmentation of the radical anion. (Anderson et al, J. Phys. Chem. A, 1997, 101, 9704-9709.) The kfrag values of prodrugs 19, 20, 140, 141 and 143-145 were measured by pulse radiolysis and are presented in Table 4.
Pulse radiolysis was used to monitor the one-electron reduction and stability of prodrug 42 in real time. A linear accelerator delivering short pulses of high energy electrons (2-3 Gy in 200 ns of 4 MeV) equipped with a fast spectophotometric detection system was used. […] The rate of fragmentation was determined by analysing kinetic transients at wavelengths corresponding to the formation of the benzyl-type radical of the trigger moiety. (Bays et al, J. Am. Chem. Soc., 105, 320-324, 1983; Anderson et al, J. Phys. Chem. A, 101, 9704-9709, 1997.)

[13] = Steady state radiolytic reduction by the CO2.− radical with HPLC-MS; assay type: physicochemical; conditions: for Detection of MNA (methyl nitroaromatic) / release of effector following 1-electron reduction: HPLC-MS; for % Loss of prodrug: HPLC-MS at 0.95 reducing equivalents; for release of effector following 1-electron reduction: steady state radiolysis
[14] = biological target: T1, erbB1; experiment: Isolated enzyme inhibition (Invitrogen Z′-LYTE kinase assay); assay type: biochemical; conditions: 10 μM ATP, duplicate
[15] = biological target: erbB4 (Homo sapiens, UniProt Q15303); experiment: Isolated enzyme inhibition (Invitrogen Z′-LYTE kinase assay); assay type: biochemical; conditions: 10 μM ATP, duplicate
Description: as §1

[16] = 24 hour exposure oxic, read-out: Cellular Growth Inhibition IC50 SKOV3 Oxic
[17] = first 4 hours anoxic, read-out: Cellular Growth Inhibition IC50 SKOV3 Anoxic
[18] = 24 hour exposure oxic, read-out: Cellular Growth Inhibition IC50 H1975 Oxic
[19] = first 4 hours anoxic, read-out: Cellular Growth Inhibition IC50 H1975 Anoxic
[20] = A-431, 4 h, read-out: Cellular Growth Inhibition IC50 A431 Anoxic
[21] = A-431, 24 h, read-out: Cellular Growth Inhibition IC50 A431 Oxic
[22] = 24 hour exposure entirely oxic, read-out: Cellular Growth Inhibition IC50 SKBR3 Oxic
[23] = first 4 hours anoxic, read-out: Cellular Growth Inhibition IC50 SKBR3 Anoxic
[24] = 24 hour exposure entirely oxic, read-out: Cellular Growth Inhibition IC50 SW620 Oxic
[25] = first 4 hours anoxic, read-out: Cellular Growth Inhibition IC50 SW620 Anoxic
[26] = A-431, read-out: Cellular Growth Inhibition IC50 A431 Anoxic

T1 sequence (P00533 25-1210): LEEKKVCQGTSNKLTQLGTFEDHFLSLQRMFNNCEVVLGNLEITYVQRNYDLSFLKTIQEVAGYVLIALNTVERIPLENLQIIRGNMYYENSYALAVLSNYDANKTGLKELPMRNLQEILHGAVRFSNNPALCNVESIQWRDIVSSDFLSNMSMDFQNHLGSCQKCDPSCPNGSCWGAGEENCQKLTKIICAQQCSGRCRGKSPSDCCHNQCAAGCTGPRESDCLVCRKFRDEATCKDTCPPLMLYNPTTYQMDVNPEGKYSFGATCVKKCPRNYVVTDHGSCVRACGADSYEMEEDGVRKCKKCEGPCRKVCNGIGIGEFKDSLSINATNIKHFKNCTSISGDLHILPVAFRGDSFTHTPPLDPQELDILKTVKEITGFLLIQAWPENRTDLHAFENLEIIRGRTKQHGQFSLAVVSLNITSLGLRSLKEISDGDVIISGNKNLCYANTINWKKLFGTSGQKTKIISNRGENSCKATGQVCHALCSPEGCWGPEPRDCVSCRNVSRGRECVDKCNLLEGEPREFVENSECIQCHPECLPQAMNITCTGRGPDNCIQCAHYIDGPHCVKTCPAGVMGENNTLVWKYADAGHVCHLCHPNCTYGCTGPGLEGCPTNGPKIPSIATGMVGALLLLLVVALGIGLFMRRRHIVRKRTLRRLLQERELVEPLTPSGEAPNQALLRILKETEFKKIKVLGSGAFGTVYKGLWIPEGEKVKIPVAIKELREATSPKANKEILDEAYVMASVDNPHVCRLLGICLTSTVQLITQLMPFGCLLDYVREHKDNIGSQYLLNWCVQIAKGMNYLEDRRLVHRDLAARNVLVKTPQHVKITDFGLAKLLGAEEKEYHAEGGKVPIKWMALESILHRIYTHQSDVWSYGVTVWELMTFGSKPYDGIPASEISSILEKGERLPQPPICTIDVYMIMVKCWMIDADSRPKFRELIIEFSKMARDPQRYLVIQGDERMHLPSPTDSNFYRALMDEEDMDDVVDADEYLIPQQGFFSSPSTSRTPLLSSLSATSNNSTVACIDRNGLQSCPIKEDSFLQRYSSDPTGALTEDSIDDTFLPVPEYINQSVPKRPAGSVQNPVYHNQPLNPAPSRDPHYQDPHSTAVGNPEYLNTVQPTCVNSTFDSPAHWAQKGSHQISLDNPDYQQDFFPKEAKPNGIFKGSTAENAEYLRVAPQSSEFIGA
Sequence of erbB2 (P04626 23-1255): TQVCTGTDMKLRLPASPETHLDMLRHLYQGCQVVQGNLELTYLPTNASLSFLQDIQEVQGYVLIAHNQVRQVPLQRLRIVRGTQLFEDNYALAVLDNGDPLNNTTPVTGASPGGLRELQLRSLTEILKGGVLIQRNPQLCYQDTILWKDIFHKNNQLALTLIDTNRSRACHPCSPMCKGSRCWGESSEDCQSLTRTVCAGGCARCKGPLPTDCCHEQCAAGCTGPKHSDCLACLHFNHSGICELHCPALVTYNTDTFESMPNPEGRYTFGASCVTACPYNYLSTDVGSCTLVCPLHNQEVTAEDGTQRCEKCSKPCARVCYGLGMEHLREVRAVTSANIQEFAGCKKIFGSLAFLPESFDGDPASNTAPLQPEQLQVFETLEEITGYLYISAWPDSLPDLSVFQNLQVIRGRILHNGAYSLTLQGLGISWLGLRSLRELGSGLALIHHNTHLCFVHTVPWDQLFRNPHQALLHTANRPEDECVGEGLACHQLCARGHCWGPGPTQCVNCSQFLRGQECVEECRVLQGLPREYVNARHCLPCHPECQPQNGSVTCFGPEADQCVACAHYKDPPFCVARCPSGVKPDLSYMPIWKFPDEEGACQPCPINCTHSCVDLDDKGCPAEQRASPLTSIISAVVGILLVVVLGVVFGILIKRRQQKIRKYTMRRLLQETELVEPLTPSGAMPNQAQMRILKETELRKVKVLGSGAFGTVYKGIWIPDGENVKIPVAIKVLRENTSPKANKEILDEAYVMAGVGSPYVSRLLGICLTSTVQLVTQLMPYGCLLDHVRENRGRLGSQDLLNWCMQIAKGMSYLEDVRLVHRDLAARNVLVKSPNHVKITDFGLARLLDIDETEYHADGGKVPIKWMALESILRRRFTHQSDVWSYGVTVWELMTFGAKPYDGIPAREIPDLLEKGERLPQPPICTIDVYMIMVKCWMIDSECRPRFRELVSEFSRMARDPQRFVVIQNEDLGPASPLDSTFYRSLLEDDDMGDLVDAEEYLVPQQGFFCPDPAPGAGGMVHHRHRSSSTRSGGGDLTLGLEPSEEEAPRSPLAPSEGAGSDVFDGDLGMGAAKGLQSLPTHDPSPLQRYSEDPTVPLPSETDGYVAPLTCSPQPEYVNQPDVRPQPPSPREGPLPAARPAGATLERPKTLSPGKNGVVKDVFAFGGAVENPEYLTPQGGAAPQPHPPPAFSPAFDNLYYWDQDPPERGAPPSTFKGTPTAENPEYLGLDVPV
Sequence of erbB4 (Q15303 26-1308): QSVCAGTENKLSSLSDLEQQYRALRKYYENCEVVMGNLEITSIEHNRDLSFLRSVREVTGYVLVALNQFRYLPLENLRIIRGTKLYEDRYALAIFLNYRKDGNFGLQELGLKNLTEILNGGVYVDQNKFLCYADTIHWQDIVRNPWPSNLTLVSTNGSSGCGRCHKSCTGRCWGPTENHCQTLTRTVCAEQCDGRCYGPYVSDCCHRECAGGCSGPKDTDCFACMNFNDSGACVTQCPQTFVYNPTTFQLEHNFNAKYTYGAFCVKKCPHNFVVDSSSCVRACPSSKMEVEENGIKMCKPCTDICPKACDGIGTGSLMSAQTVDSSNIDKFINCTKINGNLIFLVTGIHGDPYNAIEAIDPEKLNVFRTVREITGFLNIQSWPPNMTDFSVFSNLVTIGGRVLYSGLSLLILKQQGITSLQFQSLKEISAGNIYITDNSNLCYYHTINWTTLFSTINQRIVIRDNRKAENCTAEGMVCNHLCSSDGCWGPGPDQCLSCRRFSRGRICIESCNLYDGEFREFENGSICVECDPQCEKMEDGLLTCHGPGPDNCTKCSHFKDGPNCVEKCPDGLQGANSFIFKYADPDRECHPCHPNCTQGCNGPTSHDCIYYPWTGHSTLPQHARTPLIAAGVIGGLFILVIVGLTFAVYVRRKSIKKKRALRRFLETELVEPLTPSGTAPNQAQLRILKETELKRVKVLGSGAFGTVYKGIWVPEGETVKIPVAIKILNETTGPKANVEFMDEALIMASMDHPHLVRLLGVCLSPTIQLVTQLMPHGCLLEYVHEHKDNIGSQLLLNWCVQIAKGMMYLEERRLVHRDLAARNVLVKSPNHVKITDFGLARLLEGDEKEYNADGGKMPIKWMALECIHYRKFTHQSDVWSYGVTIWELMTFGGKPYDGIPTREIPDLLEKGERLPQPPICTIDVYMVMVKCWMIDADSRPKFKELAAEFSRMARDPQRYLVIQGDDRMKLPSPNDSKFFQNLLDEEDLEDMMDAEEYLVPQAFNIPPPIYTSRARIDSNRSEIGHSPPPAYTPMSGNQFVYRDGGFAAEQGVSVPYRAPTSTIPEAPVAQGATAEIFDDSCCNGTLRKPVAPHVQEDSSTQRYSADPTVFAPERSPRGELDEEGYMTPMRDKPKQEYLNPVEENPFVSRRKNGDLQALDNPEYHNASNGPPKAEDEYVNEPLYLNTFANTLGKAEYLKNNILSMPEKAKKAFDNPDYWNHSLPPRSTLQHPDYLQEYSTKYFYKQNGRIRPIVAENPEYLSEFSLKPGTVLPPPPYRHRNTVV

SMILES: Cn1cnc([N+](=O)[O-])c1C[N+](C)(C)C/C=C/C(=O)Nc1cc2c(Nc3ccc(F)c(C(F)(F)F)c3)ncnc2cn1 [Compound 50, (2E)-4-({4-[4-fluoro-3-(trifluoromethyl)anilino]pyrido[3,4-d]pyrimidin-6-yl}amino)-N,N-dimethyl-N-[(1-methyl-4-nitro-1H-imidazol-5-yl)methyl]-4-oxo-2-buten-1-ammonium bromide]
- tumour growth inhibition (TGI) [1]: 114%
- pIC50 [2, 16]: 3.90
- pIC50 [2, 17]: 5.32
- SKOV3 Deact. [2]: 126 fold
- SKOV3 HCR [2]: 28.7 fold
- pIC50 [3, 18]: 3.92
- pIC50 [3, 19]: 5.42
- H1975 Deact. [3]: 70 fold
- H1975 HCR [3]: 43.5 fold
- pIC50 [4]: 6.01
- Deact. erbB1 (fold reduction in cellular inhibition relative to the parent kinase inhibitor) [4]: 121 fold
- pIC50 [5, 20]: 6.60
- pIC50 [5, 21]: 4.82
- A431 Deact. [5]: 64 fold
- A431 HCR [5]: 65.8 fold
- solubility ([6]; aqueous buffer): 72 µM
- solubility ([6]; water): > 1300 µM
- Stability PBS (percentage parent remaining) [7]: 88%
- Stability Water (percentage parent remaining) [7]: 99%
- Stability α-MEM + FCS (5%) (percentage parent remaining) [7]: 64%

SMILES: C[N+](C)(C/C=C/C(=O)Nc1ccc2ncnc(Nc3cccc(Br)c3)c2c1)Cc1ccccc1[N+](=O)[O-] [Compound 18, (2E)-4-{[4-(3-bromoanilino)-6-quinazolinyl]amino}-N,N-dimethyl-N-(2-nitrobenzyl)-4-oxo-2-buten-1-ammonium bromide]
- hypoxia-selective inhibition of p-erbB1 [8]: no apparent hypoxia-selective inhibition
- pIC50 [9, 22]: 5.43
- pIC50 [9, 23]: 5.89
- SKBR3 Deact. [9]: 44 fold
- SKBR3 HCR [9]: 2.8 fold
- pIC50 [10, 24]: 4.04
- pIC50 [10, 25]: 4.10
- SW620 Deact. [10]: 27 fold
- SW620 HCR [10]: 1.2 fold
- pIC50 [11]: 6.91
- E (1)/V (one-electron reduction potential) [12]: −0.388 V
- pIC50 [5, 21]: 5.63
- pIC50 [5, 26]: 6.40
- A431 Deact. (fold reduction in oxic growth inhibition relative to parent kinase inhibitor) [5]: 59 fold
- A431 HCR (Hypoxic Cytotoxicity Ratio) [5]: 5.8 fold
- Detection of MNA (methyl nitroaromatic) [13]: No
- % Loss of prodrug [13]: 33%
- release of effector following 1-electron reduction [13]: did not release their respective effector compounds
- pIC50 [14]: 9.70

SMILES: C[N+](C)(C/C=C/C(=O)Nc1ccc2ncnc(Nc3cccc(Br)c3)c2c1)Cc1ccc([N+](=O)[O-])cc1 [Compound 17, (2E)-4-{[4-(3-bromoanilino)-6-quinazolinyl]amino}-N,N-dimethyl-N-(4-nitrobenzyl)-4-oxo-2-buten-1-ammonium bromide]
- hypoxia-selective inhibition of p-erbB1 [8]: no apparent hypoxia-selective inhibition
- pIC50 [9, 22]: 5.82
- pIC50 [9, 23]: 5.74
- SKBR3 Deact. [9]: 19 fold
- SKBR3 HCR [9]: 0.8 fold
- pIC50 [10, 24]: 3.95
- pIC50 [10, 25]: 3.95
- SW620 Deact. [10]: 33 fold
- SW620 HCR [10]: 1.0 fold
- pIC50 [11]: 6.96
- E (1)/V (one-electron reduction potential) [12]: −0.408 V
- pIC50 [5, 21]: 6.34
- pIC50 [5, 26]: 6.35
- A431 Deact. (fold reduction in oxic growth inhibition relative to parent kinase inhibitor) [5]: 12 fold
- A431 HCR (Hypoxic Cytotoxicity Ratio) [5]: 1.0 fold
- Detection of MNA (methyl nitroaromatic) [13]: No
- % Loss of prodrug [13]: 33%
- release of effector following 1-electron reduction [13]: did not release their respective effector compounds
- pIC50 [14]: 9.25

SMILES: C#Cc1cccc(Nc2ncnc3cnc(NC(=O)/C=C/C[N+](C)(C)Cc4c([N+](=O)[O-])ncn4C)cc23)c1 [Compound 58, (2E)-4-{[4-(3-ethynylanilino)pyrido[3,4-d]pyrimidin-6-yl]amino}-N,N-dimethyl-N-[(1-methyl-4-nitro-1H-imidazol-5-yl)methyl]-4-oxo-2-buten-1-ammonium bromide]
- tumour growth inhibition (TGI) [1]: 171%
- pIC50 [2, 16]: 4.14
- pIC50 [2, 17]: 5.60
- SKOV3 Deact. [2]: 133 fold
- SKOV3 HCR [2]: 38.5 fold
- pIC50 [3, 18]: 4.00
- pIC50 [3, 19]: 5.42
- H1975 Deact. [3]: 86 fold
- H1975 HCR [3]: 77.7 fold
- pIC50 [4]: 6.29
- Deact. erbB1 (fold reduction in cellular inhibition relative to the parent kinase inhibitor) [4]: 64 fold
- pIC50 [5, 20]: 7.46
- pIC50 [5, 21]: 5.70
- A431 Deact. [5]: 74 fold
- A431 HCR [5]: 77.9 fold
- solubility ([6]; aqueous buffer): > 1280 µM
- solubility ([6]; water): > 1280 µM
- Stability PBS (percentage parent remaining) [7]: 78%
- Stability Water (percentage parent remaining) [7]: 98%
- Stability α-MEM + FCS (5%) (percentage parent remaining) [7]: 61%

SMILES: CN(C)CCCC(=O)Nc1ccc2ncnc(Nc3cccc(Br)c3)c2c1 [Compound 16, N-[4-(3-bromoanilino)-6-quinazolinyl]-4-(dimethylamino)butanamide]
- melting point: 180 to 182 °C
- pIC50 [9, 22]: 5.50
- pIC50 [9, 23]: 5.26
- SKBR3 HCR [9]: 0.6 fold
- pIC50 [10, 24]: 4.73
- pIC50 [10, 25]: 4.71
- SW620 HCR [10]: 0.9 fold
- pIC50 [15]: 6.95
- pIC50 [11]: 7.13
- pIC50 [5, 21]: 5.90
- pIC50 [5, 26]: 5.89
